Laboratory results as given in US9920010B2, “CXCR7 receptor modulators” (IDORSIA PHARMACEUTICALS LTD, priority 2013, dated 2018).

Biological target: T1, CXCR7 (Homo sapiens, UniProt P25106)
T1 construct: host or cells: CHO-K1 (PathHunter CHO-K1 CXCR7 b-arrestin cell line, stably transfected)
Assay: PathHunter CHO-K1 CXCR7 b-arrestin recruitment assay (CXCR7 agonistic activity)
Type: cell-based
Details: PathHunter CHO-K1 CXCR7 b-arrestin cell line
How it was run: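 Stable CHO-K1 line with C-terminally ProLink-tagged CXCR7 and β-arrestin 2–EA fusion; β-arrestin recruitment restores β-gal activity, read by chemiluminescence after 1 h RT detection. Cells seeded 24 h, starved in OPTIMEM 3–4 h, exposed to compounds 90 min at 37 °C in HBSS/HEPES/BSA. Geometric-mean EC50 from repeated measurements.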

T1 sequence (P25106 whole entry): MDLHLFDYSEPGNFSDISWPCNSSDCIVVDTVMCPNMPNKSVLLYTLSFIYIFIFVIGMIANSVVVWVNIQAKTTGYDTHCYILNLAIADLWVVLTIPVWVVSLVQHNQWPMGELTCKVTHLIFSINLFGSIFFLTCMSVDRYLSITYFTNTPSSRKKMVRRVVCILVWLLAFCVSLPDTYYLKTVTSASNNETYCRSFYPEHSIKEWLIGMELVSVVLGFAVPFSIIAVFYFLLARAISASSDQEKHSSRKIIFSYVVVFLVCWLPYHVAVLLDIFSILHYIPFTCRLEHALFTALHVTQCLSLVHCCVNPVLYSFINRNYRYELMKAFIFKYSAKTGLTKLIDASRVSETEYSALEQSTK
T1 sequence (P32121 whole entry partner): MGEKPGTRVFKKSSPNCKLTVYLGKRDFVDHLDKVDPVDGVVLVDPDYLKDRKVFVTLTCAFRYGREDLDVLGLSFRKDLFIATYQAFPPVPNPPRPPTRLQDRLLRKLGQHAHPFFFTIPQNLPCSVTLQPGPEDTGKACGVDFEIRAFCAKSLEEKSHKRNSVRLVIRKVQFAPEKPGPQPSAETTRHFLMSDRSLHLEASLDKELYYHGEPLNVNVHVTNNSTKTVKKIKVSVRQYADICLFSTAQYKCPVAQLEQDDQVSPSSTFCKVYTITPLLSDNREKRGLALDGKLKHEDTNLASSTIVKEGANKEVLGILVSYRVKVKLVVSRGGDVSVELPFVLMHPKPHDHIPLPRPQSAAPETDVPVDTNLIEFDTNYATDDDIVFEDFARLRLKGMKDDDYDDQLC

Going from CN(C)CCN(Cc1ncccc1Cl)C(=O)CNc1cccc2c1CCN(C(=O)[C@@H]1C[C@@H]1F)C2 (racemic) [Example 293, rac-N-(3-Chloro-pyridin-2-ylmethyl)-N-(2-dimethylamino-ethyl)-2-[2-((1S*,2S*)-2-fluoro-cyclopropanecarbonyl)-1,2,3,4-tetrahydro-isoquinolin-5-ylamino]-acetamide] to CN(C)CCN(Cc1ncccc1Cl)C(=O)CNc1cccc2c1CN(C(=O)[C@H]1C[C@H]1F)CC2 (relative stereo) [compound 459], the EC50 rises from 20 nM to 59 nM (3-fold).

Going from CN1CCC(N(Cc2ccccc2C(F)(F)F)C(=O)CCc2cccc3c2CCN(CC2CC2)C3)CC1 [compound 160, 3-(2-Cyclopropylmethyl-1,2,3,4-tetrahydro-isoquinolin-5-yl)-N-(1-methyl-piperidin-4-yl)-N-(2-trifluoromethyl-benzyl)-propionamide] to CN1CCCC(N(Cc2ccccc2C(F)(F)F)C(=O)CNc2cccc3c2CCN(CC2CC2)C3)C1 (racemic) [compound 136], the EC50 falls from 15 nM to 1 nM (15-fold). The second is the more potent here.

Compared with CN(C)CCN(Cc1ccccc1)C(=O)CNc1cccc2c1CCN(Cc1ccco1)C2 [compound 118], CCN1CCc2cccc(NCC(=O)N(CCN(C)C)Cc3ccccc3)c2C1 [Example 185, N-Benzyl-N-(2-dimethylamino-ethyl)-2-(2-ethyl-1,2,3,4-tetrahydro-isoquinolin-8-ylamino)-acetamide] is 1.6-fold lower in EC50: 126 nM for the first, 79 nM for the second.

Compared with O=C(CNc1cccc2c1CN(CC1CC1)CC2)N(CCN1CCC(F)(F)C1)Cc1ccccc1C(F)(F)F [compound 479], O=C(CNc1cccc2c1CN(CC1CC1)CC2)N(CCN1CCC(F)(F)CC1)Cc1ccccc1C(F)(F)F [compound 474, 2-(2-Cyclopropylmethyl-1,2,3,4-tetrahydro-isoquinolin-8-ylamino)-N-[2-(4,4-difluoro-piperidin-1-yl)-ethyl]-N-(2-trifluoromethyl-benzyl)-acetamide] is 1.7-fold lower in EC50: 78 nM for the first, 47 nM for the second.

Compared with CCN1CCc2cccc(NCC(=O)N(CCN(C)C)Cc3cccc(C)c3)c2C1 [compound 495], CCN1CCc2cccc(NCC(=O)N(CCN(C)C)Cc3ccccc3F)c2C1 [compound 491, N-(2-Dimethylamino-ethyl)-2-(2-ethyl-1,2,3,4-tetrahydro-isoquinolin-8-ylamino)-N-(2-fluoro-benzyl)-acetamide] is 3-fold lower in EC50: 63 nM for the first, 21 nM for the second.

CCC(=O)N1CCc2c(cccc2NCC(=O)N(CCN(C)C)Cc2ccccc2)C1 [compound 111, N-Benzyl-N-(2-dimethylamino-ethyl)-2-(2-propionyl-1,2,3,4-tetrahydro-isoquinolin-5-ylamino)-acetamide] and CCC(=O)N1CCc2c(cccc2NCC(=O)N(CCCN(C)C)Cc2ccccc2)C1 [Example 13, N-Benzyl-N-(3-dimethylamino-propyl)-2-(2-propionyl-1,2,3,4-tetrahydro-isoquinolin-5-ylamino)-acetamide] are within 1.5-fold of each other in EC50: 32 nM for the first, 37 nM for the second.

First: COCCN1CCc2c(cccc2NCC(=O)N(CCN(C)CCF)Cc2ccccc2C(F)(F)F)C1 [Example 302, N-{2-[(2-Fluoro-ethyl)-methyl-amino]-ethyl}-2-[2-(2-methoxy-ethyl)-1,2,3,4-tetrahydro-isoquinolin-5-ylamino]-N-(2-trifluoromethyl-benzyl)-acetamide]
Second: CCCN1CCc2c(cccc2NCC(=O)N(CCN(C)C)Cc2ccccc2C(F)(F)F)C1 [Example 573, N-(2-Dimethylamino-ethyl)-2-(2-propyl-1,2,3,4-tetrahydro-isoquinolin-5-ylamino)-N-(2-trifluoromethyl-benzyl)-acetamide]
The EC50 of the first is 9-fold higher: 27 nM for the first, 3 nM for the second.

First: CCN1CCc2cccc(NCC(=O)N(CCCN(C)C)Cc3ccccc3)c2C1 [compound 507]
Second: CN(C)CCN(Cc1ccccc1)C(=O)CNc1cccc2c1CN(CC1CC1)CC2 [compound 187, N-Benzyl-2-(2-cyclopropylmethyl-1,2,3,4-tetrahydro-isoquinolin-8-ylamino)-N-(2-dimethylamino-ethyl)-acetamide]
The EC50 of the first is 2.2-fold higher: 74 nM for the first, 34 nM for the second. The second is the more potent here.

Going from CN(CCN(Cc1ccccc1C(F)(F)F)C(=O)CNc1cccc2c1CCN(CC1CC1)C2)CC1CC1 [compound 450, N-[2-(Cyclopropylmethyl-methyl-amino)-ethyl]-2-(2-cyclopropylmethyl-1,2,3,4-tetrahydro-isoquinolin-5-ylamino)-N-(2-trifluoromethyl-benzyl)-acetamide] to CS(=O)(=O)CCN(Cc1ccccc1C(F)(F)F)C(=O)CNc1cccc2c1CCN(CC1CC1)C2 [Example 229, 2-(2-Cyclopropylmethyl-1,2,3,4-tetrahydro-isoquinolin-5-ylamino)-N-(2-methanesulfonyl-ethyl)-N-(2-trifluoromethyl-benzyl)-acetamide], the EC50 rises from 1 nM to 38 nM (38-fold). The first is the more potent here.

First: CC(C)OC(=O)N1CCc2cccc(NCC(=O)N(CCN(C)C)Cc3ccccc3C(F)(F)F)c2C1 [compound 553, 8-({[(2-Dimethylamino-ethyl)-(2-trifluoromethyl-benzyl)-carbamoyl]-methyl}-amino)-3,4-dihydro-1H-isoquinoline-2-carboxylic acid isopropyl ester]
Second: CN(C)CCN(Cc1ccccc1C(F)(F)F)C(=O)CNc1cccc2c1CN(C(N)=O)CC2 [compound 562]
The EC50 of the first is 7.1-fold lower: 14 nM for the first, 100 nM for the second.

Going from CCN1CCc2cccc(NCC(=O)N(Cc3ccccc3C(F)(F)F)C3CCCN(C)C3)c2C1 (racemic) [compound 518] to CCN1CCc2cccc(NCC(=O)N(Cc3nc(C)cs3)Cc3ccccc3C(F)(F)F)c2C1 [compound 520], the EC50 rises from 9 nM to 188 nM (21-fold). The first is the more potent here.

First: CCN1CCc2cccc(NCC(=O)N(CCc3cccc(C(F)(F)F)c3)CCN(C)C)c2C1 [compound 539]
Second: COCCN1CCc2c(cccc2NCC(=O)N(CCN(C)C)Cc2ncccc2C(F)(F)F)C1 [Example 371, N-(2-Dimethylamino-ethyl)-2-[2-(2-methoxy-ethyl)-1,2,3,4-tetrahydro-isoquinolin-5-ylamino]-N-(3-trifluoromethyl-pyridin-2-ylmethyl)-acetamide]
The EC50 of the first is 7.2-fold higher: 115 nM for the first, 16 nM for the second.

First: CN(C)CCN(Cc1ncccc1F)C(=O)CNc1cccc2c1CCN(CC1CC1)C2 [Example 271, 2-(2-Cyclopropylmethyl-1,2,3,4-tetrahydro-isoquinolin-5-ylamino)-N-(2-dimethylamino-ethyl)-N-(3-fluoro-pyridin-2-ylmethyl)-acetamide]
Second: CN(C)CCN(Cc1ccccc1F)C(=O)CNc1cccc2c1CCN(CC1CC1)C2 [Example 38, 2-(2-Cyclopropylmethyl-1,2,3,4-tetrahydro-isoquinolin-5-ylamino)-N-(2-dimethylamino-ethyl)-N-(2-fluoro-benzyl)-acetamide]
The EC50 of the first is 3.3-fold higher: 10 nM for the first, 3 nM for the second. The second is the more potent here.

First: CN(C)CCN(Cc1ccccc1C(F)(F)F)C(=O)COc1cccc2c1CCN(CC1CC1)C2 [compound 174, 2-(2-Cyclopropylmethyl-1,2,3,4-tetrahydro-isoquinolin-5-yloxy)-N-(2-dimethylamino-ethyl)-N-(2-trifluoromethyl-benzyl)-acetamide]
Second: CN(C)CCN(Cc1ccccc1)C(=O)COc1cccc2c1CCN(CC1CC1)C2 [compound 166, N-Benzyl-2-(2-cyclopropylmethyl-1,2,3,4-tetrahydro-isoquinolin-5-yloxy)-N-(2-dimethylamino-ethyl)-acetamide]
The EC50 of the first is 7.5-fold lower: 0.8 nM for the first, 6 nM for the second. The first is the more potent here.

Compared with CN(C)CCN(Cc1ccccn1)C(=O)CNc1cccc2c1CCN(CC1CC1)C2 [Example 257, 2-(2-Cyclopropylmethyl-1,2,3,4-tetrahydro-isoquinolin-5-ylamino)-N-(2-dimethylamino-ethyl)-N-pyridin-2-ylmethyl-acetamide], CNCCN(Cc1ncccc1C(F)(F)F)C(=O)CNc1cccc2c1CCN(CC1CC1)C2 [compound 437, 2-(2-Cyclopropylmethyl-1,2,3,4-tetrahydro-isoquinolin-5-ylamino)-N-(2-methylamino-ethyl)-N-(3-trifluoromethyl-pyridin-2-ylmethyl)-acetamide] is 5.8-fold lower in EC50: 29 nM for the first, 5 nM for the second.

First: CC(C)(C)OC(=O)N1CCC(N(Cc2ccccc2)C(=O)CNc2cccc3c2CCN(CC2CC2)C3)C1 (racemic) [Example 65, rac-3-{Benzyl-[2-(2-cyclopropylmethyl-1,2,3,4-tetrahydro-isoquinolin-5-ylamino)-acetyl]-amino}-pyrrolidine-1-carboxylic acid tert-butyl ester]
Second: O=C(CNc1cccc2c1CCN(CC1CC1)C2)N(Cc1ccccc1)C1CCNC1 (racemic) [Example 178, rac-N-Benzyl-2-(2-cyclopropylmethyl-1,2,3,4-tetrahydro-isoquinolin-5-ylamino)-N-pyrrolidin-3-yl-acetamide]
The EC50 of the first is 6-fold higher: 150 nM for the first, 25 nM for the second.

Going from COCCN1CCc2c(/C=C/C(=O)N(Cc3ccccc3C(F)(F)F)CC3(C)COC3)cccc2C1 [Example 324, (E)-3-[2-(2-Methoxy-ethyl)-1,2,3,4-tetrahydro-isoquinolin-5-yl]-N-(3-methyl-oxetan-3-ylmethyl)-N-(2-trifluoromethyl-benzyl)-acrylamide] to O=C(CNc1cccc2c1CCN(CC1CC1)C2)N(Cc1ccccc1C(F)(F)F)CC1COCCO1 (stereo not shown) [Example 226, 2-(2-Cyclopropylmethyl-1,2,3,4-tetrahydro-isoquinolin-5-ylamino)-N-[1,4]dioxan-2-ylmethyl-N-(2-trifluoromethyl-benzyl)-acetamide], the EC50 falls from 243 nM to 13 nM (19-fold).

Going from CNCCN(Cc1ccccc1C(F)(F)F)C(=O)CNc1cccc2c1CCN(C(=O)NC(C)C)C2 [compound 404] to CNCCN(Cc1ncccc1C(F)(F)F)C(=O)CNc1cccc2c1CCN(C(=O)NC(C)C)C2 [compound 430, 5-({[(2-Methylamino-ethyl)-(3-trifluoromethyl-pyridin-2-ylmethyl)-carbamoyl]-methyl}-amino)-3,4-dihydro-1H-isoquinoline-2-carboxylic acid isopropylamide], the EC50 falls from 60 nM to 9 nM (6.7-fold). The second is the more potent here.

For CNCCN(Cc1ncccc1C(F)(F)F)C(=O)CNc1cccc2c1CCN(C(=O)CC(C)(C)C)C2 [compound 418], the EC50 was 148 nM.
